The results in this text go back to ChEMBL document CHEMBL5726857, “Bacterial topoisomerase I inhibitors with antibacterial activity” (2019).

A short description of test [1]: DNA Gyrase Supercoiling Inhibition Assay: DNA gyrase supercoiling assays were carried out by mixing the compounds and the enzyme in a similar manner as above (EcTopI relaxation inhibition assay) but in a gyrase assay buffer (35 mM Tris-HCl, 24 mM KCl, 4 mM MgCl2, 2 mM DTT, 1.75 mM ATP, 5 mM spermidine, 0.1 mg/mL BSA, 6.5% glycerol at pH 7.5), followed by the addition of 300 ng of relaxed covalently closed circular DNA (New England Biolabs, Ipswich, Mass., USA) to a final reaction volume of 20 μL. The samples were incubated at 37° C. for 30 minutes before being terminated by the addition of a buffer containing 5% SDS, 0.25% bromophenol blue, and 25% glycerol. The reactions were then analyzed by agarose gel electrophoresis. Set-up: species or system Escherichia coli.

The nature of test [2]: E. coli Topoisomerase I Relaxation Activity Inhibition Assay: The relaxation activity of E. coli topoisomerase I was assayed in a buffer containing 10 mM Tris-HCl, pH 8.0, 50 mM NaCl, 0.1 mg/mL gelatin, and 0.5 mM MgCl2. Half microliter from the appropriate stock solutions of compounds dissolved in the solvent (DMSO) or the solvent alone (control) was mixed with 9.5 μL of the reaction buffer containing 10 ng of enzyme before the addition of 10 μL of reaction buffer containing 200 ng of supercoiled pBAD/Thio plasmid DNA purified by cesium chloride gradient as substrate. Following incubation at 37° C. for 30 min, the reactions were terminated by the addition of 4 μL of a stop buffer (50% glycerol, 50 mM EDTA, and 0.5% (v/v) bromophenol blue), and analyzed by agarose gel electrophoresis. The gels were stained in ethidium bromide and photographed under UV light.

The IC50 is the concentration needed to halve the response being measured. `CN1CCN(c2c(F)cc3c(=O)c(C(=O)O)cn4c3c2Oc2cc(N)ccc2-4)CC1` returned an IC50 in test [1] of 23.4 µM.
On the same count and under the same terms, under `Nc1ccc2c(c1)Oc1c(N3CCNCC3)c(F)cc3c(=O)c(C(=O)O)cn-2c13` stands 11.7 µM.
For the compound `Nc1ccc2c(c1)Oc1c(N3CCCCC3)c(F)cc3c(=O)c(C(=O)O)cn-2c13`, the IC50 in test [2] turned out to be 3.9 µM.
Still for that read-out and setting: the result for `CCCCCNc1c(F)cc2c(=O)c(C(=O)O)cn3c2c1Oc1cc(N)ccc1-3` reads 15.6 µM.
